This is an account of results in PubChem BioAssay AID1208 (EPA DSSTox, 2008).

Each structure is given as a SMILES string. Calls of active or inactive are those of the source.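 The calls were made as follows: active = at least one rat sex group has a carcinogenic potency value and tumor site recorded; inconclusive = only rat studies were judged inadequate by the national testing program; inactive = no potency or tumor site, with negative rat experiments.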

In this series the test system is rat chronic carcinogenicity bioassay, TD50. Put plainly: DSSTox (CPDBAS) Carcinogenic Potency Database Summary Rat Bioassay Results. Particulars: TD50_Rat_Note: no positive results; TargetSites_Rat_Female: no positive results. In outline:
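The activity score maps log10(1/TD50_Rat_mmol) linearly onto 1–100; actives without a computed TD50, such as mixtures, receive 50. Source data are chronic rat carcinogenicity tests, using the most positive experiment for each sex.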

Regarding `CCn1nc(C)c2c1C(c1ccccc1)=NCC(=O)N2`, the outcome was “inactive; no positive results”.
